Experimental data: patent US7223766B2, “Bi-cyclic pyrimidine inhibitors of TGFβ” (Scios, Inc., priority 2003, dated 2007)

What was measured:
[1] = biological target: T1, TGF R1 kinase (Homo sapiens, UniProt P36897); test: TGF-β inhibition assay: phosphorylation of the substrate casein by TGF R1 kinase; format: biochemical; conditions: table names no assay; casein assay of Example 2: 2.5 μM ATP, 100 μM casein, 6.4 nM TGF R1 kinase
T1 sequence (P36897 34-503): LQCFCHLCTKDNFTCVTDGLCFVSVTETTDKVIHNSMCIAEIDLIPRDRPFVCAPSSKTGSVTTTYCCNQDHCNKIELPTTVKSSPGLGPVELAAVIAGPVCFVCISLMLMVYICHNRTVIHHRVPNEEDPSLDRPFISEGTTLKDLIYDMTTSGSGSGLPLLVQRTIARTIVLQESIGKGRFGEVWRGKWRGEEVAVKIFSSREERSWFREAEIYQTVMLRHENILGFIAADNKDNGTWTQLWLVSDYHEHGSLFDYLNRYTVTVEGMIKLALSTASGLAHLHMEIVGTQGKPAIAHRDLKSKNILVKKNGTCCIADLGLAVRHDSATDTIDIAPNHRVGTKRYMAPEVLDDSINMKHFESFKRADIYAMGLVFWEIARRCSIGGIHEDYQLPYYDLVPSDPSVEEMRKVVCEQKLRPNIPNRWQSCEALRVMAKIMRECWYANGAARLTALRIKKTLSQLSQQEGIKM
Experimental: Invention compounds were tested for their abilities to inhibit the phosphorylation of the substrate casein. The assay was conducted as follows: Compound dilutions and reagents were prepared fresh daily. Compounds were diluted from DMSO stock solutions to 2 times the desired assay concentration, keeping final DMSO concentration in the assay less than or equal to 1%. TGF RI kinase was diluted to 4 times the desired assay concentration in buffer and DTT. ATP and casein were diluted into 4× reaction buffer, and gamma-^32P-ATP was added at 50 μCi/mL.
The assay was performed by adding 10 μl of the enzyme to 20 μl of the compound solution. The reaction was initiated by the addition of 10 μl of the casein/ATP mix. Final assay conditions included 2.5 μM ATP, 100 μM casein, 6.4 nM TGF R1 kinase, and […] in 20 mM Tris buffer, pH 7.5. The reactions were incubated at room temperature for 45 minutes. The reactions were then stopped by transferring 23 μl of reaction mixture onto a phosphocellulose 96-well filter plate, which had been pre-wetted with 15 μl of 0.25M H3PO4 per well. After 5 minutes, the wells were washed 4× with 75 mM H3PO4 and once with 95% ethanol. The plate was dried, scintillation cocktail was added to each well, and the wells were counted in a Packard TopCount microplate scintillation counter. The ability of a compound to inhibit the enzyme was determined by comparing the counts obtained in the presence of the compound to those of the positive control (in the absence of compound) and the negative control (in the absence of enzyme).
In both of the assays referenced above, IC50 values can be determined with curve-fitting plots available with common software packages. Approximate IC50 values can be calculated using formula: IC50 (app)=A×i/(1−A) where A=fractional activity and i=total inhibitor concentration.

[2] = system: P-Smad 2/3; test: Bleomycin-induced SMAD phosphorylation in rats, phospho SMAD 2/3 ELISA of lung tissue; format: in vivo, rat; conditions: male Sprague-Dawley rats, intratracheal bleomycin, oral 40 mg/kg bid days 1 to 5, versus control group
Experimental: The effect of TGF-beta inhibitors on bleomycin-induced SMAD phosphorylation was studied in male Sprague-Dawley rats purchased from Charles River. Rats were housed in groups of two in the animal facility and provided with filtered air at a constant temperature and humidity. The rats were allowed to acclimate to the new environment for one week before all treatments. A 12:12 hour light-dark cycle was maintained, and the animals had free access to food and water.
To induce SMAD activation, rats were intubated with 0.5 ml of saline or 0.5 ml of 1.0 unit/ml of bleomycin by intratracheal injection under anesthesia. The anesthetic solution used was a mixture of 0.4 ml of ketamine (100 mg/ml) and 0.25 ml of xylazine (20 mg/ml) at a dose of 1.3 ml/kg.
On days 1 to 5, treated rats were weighed and orally dosed with compound 35 two-times a day at 40 mg/kg.
On Day 5, after dosing, rats were sacrificed by an overdose of the ketamine/xylazine cocktail, and then the trachea, heart and lungs of the animals were removed en bloc. All lung lobes were collected, dissected and stored in −80° C. for phospo SMAD ELISA assays.
To evaluate the effect of SMAD activation (an indicia of fibrosis), a phospho SMAD 2/3 ELISA assay was performed using the lung tissue of the sacrificed animals.

Row | Structure (SMILES) | IC50 [1] | bleomycin-induced phosphorylation of P-Smad 2/3 in the lung ([2]; 40 mg/kg) | bleomycin-induced phosphorylation of P-Smad 2/3 in the lung ([2]; listed as compound 35, 40 mg/kg)
1 | CNC(=O)c1cnccc1Nc1nc(-c2cc(Cl)ccc2F)nc2c1CCC2 [Compound 35] | 49 nM | significantly reduce | reduce
2 | CC1CCCCN1CCCNC(=O)c1cnccc1Nc1nc(-c2cc(Cl)ccc2F)nc2c1CCC2 (stereo not shown) [Compound 74] | 115 nM | – | –
3 | CCN(CC)CCNC(=O)c1cnccc1Nc1nc(-c2ccccc2F)nc2c1CCC2 [Compound 79] | 5490 nM | – | –
4 | Cc1cnccc1Nc1nc(-c2cc(Cl)ccc2F)nn2cccc12 [Compound 80] | 849 nM | – | –
5 | Fc1ccccc1-c1cc(Nc2ccncc2)n2ncnc2n1 [Compound 82] | 8840 nM | – | –
6 | Fc1ccccc1-c1cc(Nc2ccncn2)n2ncnc2n1 [Compound 83] | 16900 nM | – | –

More lines, main results first:

Row | IC50 [1] | Structure (SMILES) | bleomycin-induced phosphorylation of P-Smad 2/3 in the lung ([2]; 40 mg/kg) | bleomycin-induced phosphorylation of P-Smad 2/3 in the lung ([2]; listed as compound 35, 40 mg/kg)
7 | 712 nM | O=C(NCCN1CCCC1)c1cnccc1Nc1nc(-c2cc(Cl)ccc2F)nc2c1CCC2 [Compound 75] | – | –
8 | 2460 nM | O=C(NCCN1CCCCC1)c1cnccc1Nc1nc(-c2cc(Cl)ccc2F)nc2c1CCC2 [Compound 78] | – | –
